The target in one experiment is T1, human α-Syn fibrils (Homo sapiens, UniProt P37840).
T1 construct: Human full-length α-Syn (NM_000345) was cloned; made in house; host or cells: Escherichia coli BL21 (D3)
Nature of the experiment: Competition binding against 5 nM [3H]BF-227 on α-Syn fibrils. The following applies: for Ki: 5 nM [3H]BF-227, Cheng-Prusoff, geometric mean (low; high errors of the geometric mean); for Ki(Aβ)/Ki(α-Syn): selectivity for α-Syn binding, ratio of Ki on Aβ fibrils to Ki on α-Syn fibrils. The procedure: Human full-length α-Syn (NM_000345) was cloned into the ampicillin-resistant Escherichia coli expression vector PET7-7 and transformed into BL21 (D3) strains for expression. The recombinant α-Syn was expressed and purified to ≥95% purity as described previously.[6] The monomeric α-Syn was formulated in 10 mM Tris–HCl, pH 7.6, 50 mM NaCl at 5 mg/mL. For fibril formation, 500 µL of purified α-Syn monomer was subjected to continuous shaking at 1000 rpm in an Eppendorf Thermomixer at 37°C for 7 days. The monomer was removed from fibrils by high-speed centrifugation with a Beckman-Coulter tabletop Optima MAX-XP (Beckman-Coulter, Indianapolis, Indiana) ultra-centrifuge at 600 000g for 40 minutes, followed by 3 PBS/centrifugation wash steps. After each centrifugation step, the supernatant was removed and the concentration of α-Syn in the supernatant was calculated from absorbance at 280 nm. The pellet was resuspended in PBS, and the concentration of fibrils was estimated by subtracting the total amount of α-Syn in the supernatant from all the wash steps and confirmed by BCA assay before use.
(§1) Competition studies were carried out using 5 nM [^3H]BF-227. Experiments were performed in 50 mM Tris–HCl pH 7.5, 150 mM NaCl, and 0.1% bovine serum albumin in a reaction volume of 200 µL. Incubations were initiated with the addition of human α-Syn ([…]) or Aβ1-42 (0.1 μM/well) fibrils at room temperature and terminated 2 hours later by rapid vacuum filtration over Whatman GF/C 96-well Unifilters (Brandel [Gaithersburg, Maryland]) presoaked in cold wash buffer (50 mM Tris–HCl, pH7.4), followed by four 200 µL washes with cold wash buffer. Filters containing bound ligand were mixed with 50 µL Microscint-PS (Perkin-Elmer [Waltham, Massachusetts]) and counted with a MicroBeta2 Scintillation Counter (Perkin Elmer). All data points were performed in triplicate. Values for the saturation binding dissociation constant (KD) and the maximal number of binding sites (Bmax) were determined by fitting the data to the equation Y = Bmax × X/(X + KD) using nonlinear regression analysis. IC50 values were generated from the concentration–response curves using nonlinear regression analysis and converted to Ki values with the Cheng-Prusoff equation.[7] Data analysis was performed with GraphPad Prism version 7.02.
Results are expressed as inhibition constants (Ki, nM) corrected for ligand occupancy.[7] Each value is a geometric mean from the indicated numbers of experiments (n), with the numbers in parentheses indicating the low and high errors of the geometric mean. Also shown are the Log P, tPSA, and CLogP values for these compounds. These can be compared with means for the 5 Aβ imaging agents which can serve as an empirical training set to judge the likely in vivo behavior of new compounds.

Another experiment addresses T2, Aβ1-42 fibrils (Homo sapiens, UniProt P05067).
T2 construct: Aβ1-42 peptide 5 mg, Cat #20276-5 (Anaspec, Fremont, California); purchased Anaspec 20276-5
In words: Competition binding against 5 nM [3H]BF-227 on Aβ1-42 fibrils. The following applies: 5 nM [3H]BF-227, Cheng-Prusoff; geometric mean (low; high errors of the geometric mean); read-out: Aβ Ki. As for the experimental part: The clear peptide solution was transferred to a 15 mL conical tube. […] Subsequently, 4 mL of Milli-Q-H2O was added to the conical tube followed by the addition of 125 µL of 1 M Tris–HCl, pH 7.5 with gentle mixing of the solution. The final volume was 5 mL, with the starting peptide concentration at 1 mg/mL. The peptide solution was divided into 5 × 1 mL aliquots with 1.5 mL Eppendorf tubes and incubated for 72 hours at 37°C with shaking at 1000 rpm in an Eppendorf Thermomixer. […] Fibril stock solutions were stored at −80°C.
as §1, with “Experiments” for “Competition studies were carried out using 5 nM [^3H]BF-227. Experiments”, “equation.[7]” for “equation.[7] Data analysis was performed with GraphPad Prism version 7.02.”
Results are expressed as inhibition constants (Ki, nM) corrected for ligand occupancy.[7] Each value is a geometric mean from the indicated numbers of experiments (n), with the numbers in parentheses indicating the low and high errors of the geometric mean. […] These can be compared with means for the 5 Aβ imaging agents which can serve as an empirical training set to judge the likely in vivo behavior of new compounds.

The test system of another experiment is Lewy body. The arrangement: method as in PMID 19576880. The following applies: high concentration (100 μM); cited from earlier work.
In experiment [1] the target is synthetic Aβ fibrils. The arrangement: method as in PMID 17401091. The following applies: reported value; cited from earlier work.
Experiment [2] has as its target synthetic Aβ fibrils. On the set-up: method as in PMID 19576880. Conditions: reported value; cited from earlier work.
Another experiment concerns the target synthetic α-Syn fibrils. On the set-up: method as in PMID 19576880. Conditions: reported value; cited from earlier work.
The subject of experiment [3] is α-Syn-positive, Aβ-negative dementia with Lewy body human brain homgenates. On the set-up: method as in PMID 28826526. Conditions: cited from earlier work.

Like-named read-outs stand apart in the source and are kept apart here. Where only a bound is given, the exact number is not on record here.

T2 sequence (P05067 672-713 limits assumed): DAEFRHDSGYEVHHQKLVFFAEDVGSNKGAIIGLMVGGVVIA

By Ki is commonly meant a dissociation constant, usually derived from enzyme kinetics or from competition with a known ligand. For `Fc1ccc2nc(/C=C/c3ccccc3)oc2c1` [Compound 13], on human α-Syn fibrils, the affinity corresponds to a Ki of 328 nM and the “Ki(Aβ)/Ki(α-Syn)” value is on record as 3.8. Moreover, the Ki on Aβ1-42 fibrils is 1250 nM.

Take `CNc1ccc(-c2cc3cc(O)ccc3o2)c(F)n1` [Flutafuranol (NAV 4694), reference compound]: on human α-Syn fibrils, the affinity corresponds to a Ki of 32 nM and the “Ki(Aβ)/Ki(α-Syn)” value turned out to be 1.34. The inhibition constant (Ki) at Aβ1-42 fibrils stood at 42 nM.

With `CNc1ccc(-c2nc3ccccc3s2)cc1` [BTA-1, reference compound], the affinity on human α-Syn fibrils, expressed as Ki, was 64 nM.

Turning to `CN(C)c1ncc(/C=C/c2nc3ccc(OCCCCCF)cc3o2)s1` [Compound 4], the figures for the Ki at human α-Syn fibrils and on Aβ1-42 fibrils were 297 nM and 28 nM, respectively. In addition, the “Ki(Aβ)/Ki(α-Syn)” value on human α-Syn fibrils is on record as 0.09.

In turn, `CNc1ccc(-c2nc3ccc(O)cc3s2)cc1` [PiB, reference compound] came in with an inhibition constant (Ki) at human α-Syn fibrils of 55 nM.

As for `CN(C)c1ncc(/C=C/c2nc3ccc(OCCOCCOCCF)cc3o2)s1` [Compound 8], on human α-Syn fibrils, affinity was put at a Ki of 52 nM and the “Ki(Aβ)/Ki(α-Syn)” value is on record as 0.25. Also, on Aβ1-42 fibrils, the Ki was found to be 13 nM.

Turning to `NCCNC(=O)c1ccc(Cl)cc1` [RO-16-6491, reference compound], the inhibitory constant (Ki) on human α-Syn fibrils was over 9000 nM; at Aβ1-42 fibrils, over 7000 nM.

For `CN(C)c1ncc(/C=C/c2nc3ccc(OCCCF)cc3o2)s1` [Compound 2], the inhibition constant (Ki) was 157 nM on human α-Syn fibrils and 9.01 nM on Aβ1-42 fibrils. Moreover, at human α-Syn fibrils, the “Ki(Aβ)/Ki(α-Syn)” value was 0.06.

As for `CN(C)c1ncc(/C=C/c2nc3ccc(OCCCCCCCF)cc3o2)s1` [Compound 6], at human α-Syn fibrils, the affinity, expressed as Ki, was 212 nM and the “Ki(Aβ)/Ki(α-Syn)” value is 0.13. The inhibitory constant (Ki) on Aβ1-42 fibrils worked out at 27 nM.

With `CN(C)c1ncc(/C=C/c2nc3ccc(OCCOCCF)cc3o2)s1` [Compound 7], on human α-Syn fibrils, the affinity corresponds to a Ki of 83 nM and the “Ki(Aβ)/Ki(α-Syn)” value is on record as 0.13. For the same compound, the Ki on Aβ1-42 fibrils was determined as 11 nM.

For the compound `CNc1ccc(/C=C/c2ccc(OCCOCCOCCF)nc2)cc1` [Florbetapir (AV-45), reference compound], at human α-Syn fibrils, the affinity, expressed as Ki, was 24 nM and the “Ki(Aβ)/Ki(α-Syn)” value amounted to 0.46. In addition, the inhibitory constant (Ki) on Aβ1-42 fibrils is 12 nM.

Usually Kd stands for the constant that tells how readily two partners part at equilibrium. In the case of `CN(C)c1ncc(C=Cc2nc3ccc(OCCF)cc3o2)s1` [Compound 1, 2-(2-[2-dimethylaminothiazol-5-yl]ethenyl)-6-(2-[fluoro]ethoxy)benzoxazole], the “Lewy body fluorescence in histochemical analysis” value with Lewy body was “led to Lewy body fluorescence”. In addition, the values for the dissociation constant (Kd) on synthetic Aβ fibrils [1], at synthetic Aβ fibrils [2] and on synthetic α-Syn fibrils were 4.1 nM, 1.31 nM and 9.3 nM, respectively. The Ki at human α-Syn fibrils is 53 nM; at Aβ1-42 fibrils it was 12 nM. On human α-Syn fibrils, the “Ki(Aβ)/Ki(α-Syn)” value is on record as 0.23.

For `CNc1ccc(-c2nc3ccc(O)cc3s2)cc1F` [Flutemetamol, reference compound], on human α-Syn fibrils, the Ki turned out to be 48 nM and the “Ki(Aβ)/Ki(α-Syn)” value is 1.35. The Ki on Aβ1-42 fibrils turned out to be 65 nM.

Regarding `CN(C)c1ncc(/C=C/c2nc3ccc(OCCOCCOCCOCCOCCF)cc3o2)s1` [Compound 10], the values for the Ki at human α-Syn fibrils and at Aβ1-42 fibrils were 75 nM and 18 nM, respectively. Besides, the “Ki(Aβ)/Ki(α-Syn)” value on human α-Syn fibrils was found to be 0.24.

Consider `CN(C)c1ncc(/C=C/c2nc3ccc(OCCCCF)cc3o2)s1` [Compound 3], for which the Ki at human α-Syn fibrils was 378 nM; at Aβ1-42 fibrils, 31 nM. The “Ki(Aβ)/Ki(α-Syn)” value at human α-Syn fibrils amounted to 0.08.

Regarding `Cc1ccc2c(sc(-c3ccc4c(c3)sc(-c3ccc(N(C)C)cc3)[n+]4C)[n+]2C)c1S(=O)(=O)O` [reference compound], on human α-Syn fibrils, the inhibition constant (Ki) is over 9000 nM and the “Ki(Aβ)/Ki(α-Syn)” value is on record as at most 0.2. In addition, the inhibition constant (Ki) at Aβ1-42 fibrils came out at 2150 nM.

`Fc1ccc2oc(/C=C/c3ccccc3)nc2c1` [Compound 14]: the Ki at human α-Syn fibrils was 238 nM; at Aβ1-42 fibrils it was 528 nM. Also, the “Ki(Aβ)/Ki(α-Syn)” value at human α-Syn fibrils is 2.2.

On to `CN(C)c1ncc(/C=C/c2nc3ccc(OCCCCCCF)cc3o2)s1` [Compound 5], for which the inhibition constant (Ki) at human α-Syn fibrils was found to be 462 nM; at Aβ1-42 fibrils, 23 nM. Further, the “Ki(Aβ)/Ki(α-Syn)” value on human α-Syn fibrils is on record as 0.05.

Turning to `CN(C)c1ncc(C=Cc2nc3ccc(OCCF)cc3o2)s1` [[^18F]BF-227], the “Binding to α-Syn-positive, Aβ-negative dementia with Lewy body human brain homogenates” value in experiment [3] is recorded as “failed to bind”.

As to `C#CCN(C)CCCOc1ccc(Cl)cc1Cl` [Clorgyline, reference compound], the values for the Ki on human α-Syn fibrils and on Aβ1-42 fibrils were over 9000 nM and over 5000 nM, respectively.

As for `COc1cc(/C=C/c2ccc(N)cc2)ccc1/C=C/c1ccc(N)cc1` [BMB, 1,4-bis(paminostyryl)-2-methoxy benzene, reference compound], the results for the inhibition constant Ki at human α-Syn fibrils and on Aβ1-42 fibrils were 184 nM and 76 nM, respectively.

In the case of `CN(C)c1ncc(/C=C/c2nc3ccc(I)cc3o2)s1` [Compound 11], the “Ki(Aβ)/Ki(α-Syn)” value on human α-Syn fibrils was determined as 0.30. Moreover, on Aβ1-42 fibrils, the inhibitory constant (Ki) was found to be 223 nM.

For the compound `CN(C)c1ncc(/C=C/c2nc3cc(I)ccc3o2)s1` [Compound 12], the results for the inhibitory constant (Ki) at human α-Syn fibrils and on Aβ1-42 fibrils were 276 nM and 96 nM, respectively. Also, on human α-Syn fibrils, the “Ki(Aβ)/Ki(α-Syn)” value was 0.35.

Consider `CN(C)c1ncc(/C=C/c2nc3ccc(OCCOCCOCCOCCF)cc3o2)s1` [Compound 9], for which, on human α-Syn fibrils, the Ki amounted to 100 nM and the “Ki(Aβ)/Ki(α-Syn)” value came out at 0.26. Also, at Aβ1-42 fibrils, the inhibition constant Ki was 26 nM.

As to `Fc1ccc2nc(/C=C/c3cncs3)oc2c1` [Compound 15], on human α-Syn fibrils, the Ki was 286 nM and the “Ki(Aβ)/Ki(α-Syn)” value stood at 5.1. Further, the inhibition constant Ki on Aβ1-42 fibrils came to 1450 nM.

The values are drawn from publication PMC6144582, “The Binding of BF-227-Like Benzoxazoles to Human α-Synuclein and Amyloid β Peptide Fibrils” (Molecular Imaging, 2018).
